Measurements from PMC10952572, “Improved PIEZO1 agonism through 4‐benzoic acid modification of Yoda1” (British Journal of Pharmacology, 2023).

How the values were obtained:
[1] = molecular target: T1, hPIEZO1 (Homo sapiens, UniProt Q92508); assay: Intracellular Ca2+ measurement (Fura-2) in hPIEZO1-TREx cells; format: cell-based; details: for Peak ΔCa2+i (ΔF340/380), median fold difference compared to Yoda1: 10 μM compound, hPIEZO1-TREx cells, paired with 10 μM Yoda1; for Ability to evoke intracellular Ca2+ elevation: 10 μM, cells overexpressing hPIEZO1, compared with Yoda1
T1 construct: expressed in transfected cells
T1 sequence (Q92508 whole entry): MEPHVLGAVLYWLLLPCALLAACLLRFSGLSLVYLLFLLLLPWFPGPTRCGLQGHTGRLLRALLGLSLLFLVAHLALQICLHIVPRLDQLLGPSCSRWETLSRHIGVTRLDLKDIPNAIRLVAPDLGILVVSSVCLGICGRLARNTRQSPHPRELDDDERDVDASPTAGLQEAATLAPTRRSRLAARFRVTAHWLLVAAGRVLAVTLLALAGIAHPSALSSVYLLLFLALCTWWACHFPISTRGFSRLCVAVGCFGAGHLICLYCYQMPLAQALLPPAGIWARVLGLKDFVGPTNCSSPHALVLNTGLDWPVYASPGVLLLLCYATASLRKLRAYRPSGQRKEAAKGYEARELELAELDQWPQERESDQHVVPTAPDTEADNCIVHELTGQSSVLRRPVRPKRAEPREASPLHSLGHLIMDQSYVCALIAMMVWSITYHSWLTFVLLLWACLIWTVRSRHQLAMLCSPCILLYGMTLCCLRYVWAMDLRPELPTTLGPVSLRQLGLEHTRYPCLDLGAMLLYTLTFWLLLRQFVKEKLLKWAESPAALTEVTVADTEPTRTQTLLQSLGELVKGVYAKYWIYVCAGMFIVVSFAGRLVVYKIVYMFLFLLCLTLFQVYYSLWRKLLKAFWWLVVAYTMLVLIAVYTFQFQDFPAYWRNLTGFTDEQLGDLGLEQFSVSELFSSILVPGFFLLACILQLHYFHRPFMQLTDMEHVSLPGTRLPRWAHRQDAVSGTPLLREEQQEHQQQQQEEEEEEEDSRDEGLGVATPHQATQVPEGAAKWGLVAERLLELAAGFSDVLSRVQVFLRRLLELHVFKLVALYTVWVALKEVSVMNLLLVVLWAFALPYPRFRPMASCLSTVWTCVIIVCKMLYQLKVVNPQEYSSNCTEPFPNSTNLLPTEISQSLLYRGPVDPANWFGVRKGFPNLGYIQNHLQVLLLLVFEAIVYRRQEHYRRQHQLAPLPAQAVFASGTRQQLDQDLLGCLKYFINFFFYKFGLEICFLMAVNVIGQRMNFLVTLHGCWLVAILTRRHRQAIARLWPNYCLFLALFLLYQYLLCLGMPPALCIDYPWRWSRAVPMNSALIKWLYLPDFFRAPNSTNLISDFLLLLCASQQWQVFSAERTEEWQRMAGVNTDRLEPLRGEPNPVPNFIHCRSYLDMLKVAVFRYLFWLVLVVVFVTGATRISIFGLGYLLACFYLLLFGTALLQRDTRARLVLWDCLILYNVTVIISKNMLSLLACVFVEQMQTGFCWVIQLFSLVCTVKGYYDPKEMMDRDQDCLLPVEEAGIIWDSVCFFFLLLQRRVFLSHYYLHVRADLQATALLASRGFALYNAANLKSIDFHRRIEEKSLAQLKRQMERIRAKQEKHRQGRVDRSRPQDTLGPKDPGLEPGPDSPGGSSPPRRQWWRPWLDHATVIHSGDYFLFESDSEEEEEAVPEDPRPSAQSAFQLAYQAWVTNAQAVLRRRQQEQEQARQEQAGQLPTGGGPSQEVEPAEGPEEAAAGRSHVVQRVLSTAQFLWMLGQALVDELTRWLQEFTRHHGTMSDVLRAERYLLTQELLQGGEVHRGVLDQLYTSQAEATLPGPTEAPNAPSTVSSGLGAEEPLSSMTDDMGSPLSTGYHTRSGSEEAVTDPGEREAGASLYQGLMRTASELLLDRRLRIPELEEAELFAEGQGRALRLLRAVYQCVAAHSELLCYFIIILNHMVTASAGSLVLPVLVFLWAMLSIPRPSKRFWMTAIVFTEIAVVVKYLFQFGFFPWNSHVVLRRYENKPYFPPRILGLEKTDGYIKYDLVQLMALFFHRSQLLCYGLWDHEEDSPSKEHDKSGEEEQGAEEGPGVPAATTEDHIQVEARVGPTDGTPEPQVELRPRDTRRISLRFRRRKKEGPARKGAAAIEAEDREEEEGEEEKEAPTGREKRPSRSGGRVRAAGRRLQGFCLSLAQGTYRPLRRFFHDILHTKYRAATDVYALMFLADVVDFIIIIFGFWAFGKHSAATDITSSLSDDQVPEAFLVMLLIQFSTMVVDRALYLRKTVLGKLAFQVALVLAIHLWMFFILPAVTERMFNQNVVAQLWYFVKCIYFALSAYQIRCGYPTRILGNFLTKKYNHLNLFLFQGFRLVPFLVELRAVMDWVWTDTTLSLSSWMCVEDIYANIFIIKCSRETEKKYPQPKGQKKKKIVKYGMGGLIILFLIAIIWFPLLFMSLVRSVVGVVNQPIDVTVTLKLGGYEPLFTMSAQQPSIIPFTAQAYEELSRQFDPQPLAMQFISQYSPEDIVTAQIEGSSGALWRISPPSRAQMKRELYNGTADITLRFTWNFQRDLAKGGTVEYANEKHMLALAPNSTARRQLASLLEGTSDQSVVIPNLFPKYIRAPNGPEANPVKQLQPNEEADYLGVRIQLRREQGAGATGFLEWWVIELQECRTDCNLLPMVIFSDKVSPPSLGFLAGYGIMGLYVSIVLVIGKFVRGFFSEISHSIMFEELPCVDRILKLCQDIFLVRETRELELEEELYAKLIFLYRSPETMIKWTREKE
Source text: HEK T‐REx™ 293 cells (Thermo Fisher Cat #R71007, RRID:CVCL_D585) that overexpress hPIEZO1 upon induction with tetracycline were generated as previously described (Rode et al., [2017]). PIEZO1‐GFP was used as a PCR template to clone hPIEZO1 coding sequence into pcDNA™4/TO between HindIII and EcoRI restriction sites. PIEZO1 was amplified as two fragments using the following primers: (HindIII‐PIEZO1‐Fw: […] and BamHI‐Int.PIEZO1‐Rv: […]) and (BamHI‐Int. PIEZO1‐Fw: […] and EcoRI‐PIEZO1‐Rv: […]). The two fragments were fused using BamHI restriction site, resulting in the full‐length PIEZO1 coding sequence with the c4182a silent mutation. HEK T‐REx™ 293 cells (Invitrogen) were transfected with pcDNA4/TO‐PIEZO1 using Lipofectamine 2000 (Thermo Fisher Scientific). Subsequently, cells were treated with 10 μg·ml^−1 blasticidin and 200 μg·ml^−1 zeocin (InvivoGen) to select stably transfected cells. Single‐cell clones were isolated and analysed individually. Expression was induced by treating the cells for 24 h with 10 ng·ml^−1 tetracycline and analysed by quantitative RT‐PCR and Western blot. These cells are referred to as hPIEZO1‐TREx.
(§1) HEK 293‐TREx cells and their stably transfected derivatives or transiently transfected HEK 293 or HeLa cells were seeded at a density of 7.5 × 10^4 cells per well into poly‐D‐lysine‐coated 96‐well plates. The plates were either commercially pre‐coated with poly‐D‐lysine (Greiner Bio‐One #655946) or (Greiner Bio‐One #655090) were coated in‐house with 35 μl of a 10 μg·ml^−1 poly‐D‐lysine (Bio‐Techne, Cultrex # 3439‐100‐01) in sterile deionised water per well for at least 24 h and rinsed three times with 100 μl per well sterile D‐PBS before addition of cells. HUVECs were seeded into tissue culture‐treated 96‐well plates (Greiner Bio‐One #655090) at a density of either 2.5 × 10^4 cells 24 h before experimentation or 1.25 × 10^4 cells 48 h before experimentation. Cells were incubated with 2 μM Fura‐2‐AM (Molecular Probes™) in the presence of 0.01% (wt./vol.) pluronic F127 (Sigma‐Aldrich #P2443) in standard bath solution (SBS) for 1 h at 37°C. Cells were washed with SBS for 30 min at room temperature. Alternatively, if inhibitors were being tested, these were added at this time, immediately following a wash in SBS. (−)‐Englerin A (Akbulut et al., [2015]) was used in SBS containing 0.01% pluronic acid as a dispersing agent to minimise aggregation of compound. Unless otherwise stated, the final concentration of DMSO was 0.2% (vol./vol). Working 2000× stock solutions of test compounds were freshly made in DMSO and diluted 1000‐fold in SBS during the 30 min SBS wash/inhibitor pre‐incubation period to obtain 2× solutions for injection. When testing the highest concentration of Yoda1, KC159 and KC289 (30 μM), the final DMSO concentration was 0.6% (vol./vol.). Measurements were made at room temperature on a 96‐well fluorescence plate reader (FlexStation 3, Molecular Devices, Sunnyvale, CA, USA) controlled by SoftMax Pro software v7.0.3. Recipient wells containing 80 μl SBS/0.2% (vol./vol.) DMSO vehicle or inhibitor compound received 80 μl 2× compound at an injection rate of 1 μl·s^−1, and the pipette introduced liquids from a height setting of 70 μl. No trituration was performed. For recordings using Fura‐2, the change in intracellular Ca was indicated as the ratio of Fura‐2 emission (510 nm) intensities at 340 and 380 nm excitation. Photomultipliers were set to medium sensitivity. SBS contained 130 mM NaCl, 5 mM KCl, 8 mM D‐glucose, 10 mM HEPES, 1.2 mM MgCl2 and 1.5 mM CaCl2, and the pH was adjusted to 7.4 with NaOH. The solution was filtered through a 0.2 μm bottle‐top filter prior to use and handled aseptically thereafter.
For intracellular Ca^2+ (Ca^2+i) measurements, technical intra‐experiment replicates were used to improve confidence in the data. Analysis of individual experiments was performed to obtain mean ± SEM values. […]

[2] = molecular target: T2, mPIEZO1 (Mus musculus, UniProt E2JF22); assay: Intracellular Ca2+ measurement (Fura-2) in mPIEZO1-TREx cells; format: cell-based; details: for Peak ΔCa2+i (ΔF340/380), median fold difference compared to Yoda1: 10 μM compound, mPIEZO1-TREx cells, paired with 10 μM Yoda1; for Ca2+ response (agonist effect): 10 μM, cells overexpressing mPIEZO1, compared with Yoda1; for EC50: overexpressed mouse PIEZO1, calcium assays
T2 construct: expressed in transfected cells
T2 sequence (E2JF22 whole entry): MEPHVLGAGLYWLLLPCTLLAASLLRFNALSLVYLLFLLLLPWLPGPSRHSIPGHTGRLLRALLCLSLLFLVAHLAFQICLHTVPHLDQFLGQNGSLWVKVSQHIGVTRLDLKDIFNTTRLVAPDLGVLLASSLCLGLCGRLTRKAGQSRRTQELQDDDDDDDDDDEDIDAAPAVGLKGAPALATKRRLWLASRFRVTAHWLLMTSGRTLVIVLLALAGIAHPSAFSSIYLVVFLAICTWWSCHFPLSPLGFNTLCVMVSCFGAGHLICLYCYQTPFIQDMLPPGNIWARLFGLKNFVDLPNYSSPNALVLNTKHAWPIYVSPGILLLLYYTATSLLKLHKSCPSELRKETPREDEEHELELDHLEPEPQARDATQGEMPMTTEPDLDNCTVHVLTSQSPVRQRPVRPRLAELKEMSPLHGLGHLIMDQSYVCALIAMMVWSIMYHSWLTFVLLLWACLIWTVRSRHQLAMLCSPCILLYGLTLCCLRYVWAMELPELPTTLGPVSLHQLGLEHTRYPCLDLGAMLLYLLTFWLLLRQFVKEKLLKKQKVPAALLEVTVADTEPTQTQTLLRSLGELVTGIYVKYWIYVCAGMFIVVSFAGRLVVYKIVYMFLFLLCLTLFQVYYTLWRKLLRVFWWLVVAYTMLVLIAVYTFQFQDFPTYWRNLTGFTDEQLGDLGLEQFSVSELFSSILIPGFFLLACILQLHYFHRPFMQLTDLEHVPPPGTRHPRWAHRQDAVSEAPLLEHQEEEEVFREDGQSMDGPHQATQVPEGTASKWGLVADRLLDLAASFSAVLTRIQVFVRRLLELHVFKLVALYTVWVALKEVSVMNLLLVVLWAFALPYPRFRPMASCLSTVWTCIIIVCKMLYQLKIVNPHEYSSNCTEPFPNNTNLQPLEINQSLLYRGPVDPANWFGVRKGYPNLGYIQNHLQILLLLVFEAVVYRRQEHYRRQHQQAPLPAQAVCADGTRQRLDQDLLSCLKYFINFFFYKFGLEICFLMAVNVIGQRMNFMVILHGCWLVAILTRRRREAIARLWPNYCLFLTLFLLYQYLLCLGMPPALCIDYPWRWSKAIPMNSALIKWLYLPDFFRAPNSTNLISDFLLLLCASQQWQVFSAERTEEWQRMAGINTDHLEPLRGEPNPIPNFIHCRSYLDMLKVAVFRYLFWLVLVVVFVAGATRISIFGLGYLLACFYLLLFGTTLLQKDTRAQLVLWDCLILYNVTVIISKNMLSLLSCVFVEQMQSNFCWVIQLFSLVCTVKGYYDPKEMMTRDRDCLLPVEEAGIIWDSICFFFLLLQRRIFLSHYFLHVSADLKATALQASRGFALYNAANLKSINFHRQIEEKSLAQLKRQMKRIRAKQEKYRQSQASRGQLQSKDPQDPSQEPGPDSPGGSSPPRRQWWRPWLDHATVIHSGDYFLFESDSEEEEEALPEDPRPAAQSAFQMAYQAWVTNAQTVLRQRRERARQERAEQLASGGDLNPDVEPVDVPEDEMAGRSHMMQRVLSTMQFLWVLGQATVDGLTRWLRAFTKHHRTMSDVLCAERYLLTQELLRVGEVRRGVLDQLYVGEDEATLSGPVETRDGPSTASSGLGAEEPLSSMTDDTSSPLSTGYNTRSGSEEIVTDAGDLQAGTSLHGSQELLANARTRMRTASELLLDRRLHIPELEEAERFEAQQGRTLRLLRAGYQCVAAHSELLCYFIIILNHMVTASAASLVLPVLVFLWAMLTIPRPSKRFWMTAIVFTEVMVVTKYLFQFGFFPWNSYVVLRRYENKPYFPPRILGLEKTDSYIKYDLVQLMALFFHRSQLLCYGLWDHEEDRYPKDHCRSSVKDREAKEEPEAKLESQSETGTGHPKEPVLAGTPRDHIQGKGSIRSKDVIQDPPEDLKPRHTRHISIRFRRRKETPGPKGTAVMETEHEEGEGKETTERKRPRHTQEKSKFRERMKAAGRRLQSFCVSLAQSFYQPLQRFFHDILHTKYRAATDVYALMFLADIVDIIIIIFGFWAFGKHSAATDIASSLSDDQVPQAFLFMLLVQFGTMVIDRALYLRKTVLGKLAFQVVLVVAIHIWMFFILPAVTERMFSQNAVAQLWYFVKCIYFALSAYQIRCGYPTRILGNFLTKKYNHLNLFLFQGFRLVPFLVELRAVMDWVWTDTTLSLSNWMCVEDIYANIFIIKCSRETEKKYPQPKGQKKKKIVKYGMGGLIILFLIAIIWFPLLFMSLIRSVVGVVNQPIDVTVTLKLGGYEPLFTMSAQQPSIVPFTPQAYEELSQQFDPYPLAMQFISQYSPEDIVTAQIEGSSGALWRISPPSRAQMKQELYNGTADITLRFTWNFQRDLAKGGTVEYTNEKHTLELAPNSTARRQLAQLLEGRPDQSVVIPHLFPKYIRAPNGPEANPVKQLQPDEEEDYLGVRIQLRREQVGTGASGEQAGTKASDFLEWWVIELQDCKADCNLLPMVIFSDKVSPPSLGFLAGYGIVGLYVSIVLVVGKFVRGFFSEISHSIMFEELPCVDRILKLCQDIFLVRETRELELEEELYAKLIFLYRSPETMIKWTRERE
Source text: HEK T‐REx™ cells that constitutively overexpress murine PIEZO1 were generated as previously described (Blythe et al., [2019]). pcDNA3 mouse PIEZO1 (mPIEZO1) IRES green fluorescent protein (GFP), a gift from Ardem Patapoutian (Coste et al., [2010]), was used as a template to clone the mPIEZO1 coding sequence into pcDNA4/TO. Overlapping mPIEZO1 (forward primer 5′‐[…]‐3′ and reverse primer 5′‐[…]‐3′) and pcDNA4/TO (forward primer 5′‐[…]‐3′ and reverse primer 5′‐[…]‐3′) PCR products were assembled using Gibson Assembly (New England Biolabs). […] HEK T‐REx™ 293 cells were transfected with pcDNA4/TO‐mPIEZO1 using Lipofectamine 2000 (Invitrogen) and treated with 200 μg·ml^−1 zeocin to select stably transfected cells. Individual clones were isolated and analysed for expression using Yoda1 and intracellular Ca^2+ measurements. These cells are referred to as mPIEZO1‐TREx.
as §1
For intracellular Ca^2+ (Ca^2+i) measurements, technical intra‐experiment replicates were used to improve confidence in the data. Analysis of individual experiments was performed to obtain mean ± SEM values. For collated analysis of independent experiments, where normal distributions were not evidenced by Shapiro–Wilk normality tests, non‐parametric distributions were assumed, and therefore, median values were used. […]

[3] = Stability in plasma; format: in vitro ADME; details: mouse plasma, 1 μM, over 2 h
Experimental: Pooled heparinised mouse plasma was warmed to 37°C for 10 min, mixed and cleared of aggregated protein by centrifugation. Aliquots of the clear supernatant were transferred into the assay plate. Following equilibration to 37°C, biotransformation was initiated by adding and mixing of 1 μM compound solution in a final incubation volume of 300 μl; 25 μl aliquots were removed at 0, 5, 15, 30, 60 and 120 min and quenched in 300 μl ice‐cold acetonitrile containing internal standard. After storing the samples at −20°C for a minimum of 4 h, the protein in the samples was precipitated by centrifugation at 4°C, and the supernatants were analysed by LC–MS/MS to quantify the % input test compound remaining.

| Structure (SMILES) | Peak ΔCa2+i (ΔF340/380), median fold difference compared to Yoda1 [1] | Peak ΔCa2+i (ΔF340/380), median fold difference compared to Yoda1 [2] | Ca2+ response (agonist effect) [2] | Ability to evoke intracellular Ca2+ elevation [1] | EC50 [2] [nM] | Plasma stability [3] | Potency relative to Yoda1 ([2]; mPIEZO1, from EC50 values) |
| --- | --- | --- | --- | --- | --- | --- | --- |
| O=C(O)c1ccccc1-c1nnc(SCc2c(Cl)cccc2Cl)s1 [KC157] | −24.4 fold | −70.6 fold | inactive |  |  |  |  |
| O=C(O)c1ccc(-c2nnc(SCc3c(Cl)cccc3Cl)s2)cc1 [KC159] | +1.8 fold | +1.1 fold | larger responses than Yoda1 | robust responses that are larger than those of Yoda1 | 280 | good stability over 2 h |  |
| Clc1cccc(Cl)c1CSc1nnc(-c2cnccn2)s1 [Yoda1, 2‐[5‐[[(2,6‐dichlorophenyl)methyl]thio]‐1,3,4‐thiadiazol‐2‐yl]pyrazine] |  |  |  |  | 600 | good stability over 2 h |  |
| O=C([O-])c1ccc(-c2nnc(SCc3c(Cl)cccc3Cl)s2)cc1.[K+] [KC289] | +2.8 fold | +1.2 fold | larger responses than Yoda1 | robust responses that are larger than those of Yoda1 | 150 | good stability over 2 h | approximately four times more potent than Yoda1 |
